Consider 15 molecules from patent US8349829B2, “[4-(1-amino-ethyl)-cyclohexyl]-methyl-amine and [6-(1-amino-ethyl)-tetrahydro-pyran-3-yl]-methyl-amine derivatives as antibacterials” (Actelion Pharmaceuticals Ltd., priority 2008, dated 2013).

The structures appear in SMILES notation. Values after ≈ are worked out from the molar mass of the structure shown.

What is called MIC is the least concentration at which growth counts as inhibited. Read a low MIC as greater potency.

For one experiment, the system named is E. coli 25922. In words: MIC by microdilution in cation-adjusted Mueller-Hinton Broth (NCCLS). It is filed as cell-based. As to conditions: for MIC: Escherichia coli, 25922, pH 7.2-7.3; for MIC for E. coli 25922: pH 7.2-7.3. On the procedure: (§1) These assays have been performed following the description given in “Methods for dilution Antimicrobial Susceptibility Tests for Bacteria that Grow Aerobically, 4th ed.; Approved standard: NCCLS Document M7-A4; National Committee for Clinical Laboratory Standards: Villanova, Pa., USA, 1997”. Minimal inhibitory concentrations (MICs; mg/l) were determined in cation-adjusted Mueller-Hinton Broth (BBL) by a microdilution method following NCCLS guidelines (National Committee for Clinical Laboratory Standards. Methods for Dilution Antimicrobial Susceptibility). The pH of the test medium was 7.2-7.3. All Example compounds were tested against several Gram positive and Gram negative bacteria such as S. aureus, E. faecalis, S. pneumoniae, M catarrhalis, A. baumanii, E. coli or P. aeruginosa.
(In general: Dilution methods test growth across graded concentrations, often in twofold steps.)

The next experiment concerns P. aeruginosa 27853. The experiment is described as above. Particulars: for MIC: Pseudomonas aeruginosa, 27853, pH 7.2-7.3; for MIC for P. aeruginosa 27853: pH 7.2-7.3. The format is cell-based. On the procedure:
as §1

With `COc1ccc2ccc(=O)n(C[C@H](N)[C@@H]3CC[C@@H](NCc4ccc5c(n4)NC(=O)CO5)CO3)c2n1` [Example 11, 6-({(3R,6S)-6-[(1S)-1-amino-2-(7-methoxy-2-oxo-2H-[1,8]naphthyridin-1-yl)-ethyl]-tetrahydro-pyran-3-ylamino}-methyl)-4H-pyrido[3,2-b][1,4]oxazin-3-one], the values for the MIC in the experiment on E. coli 25922 and against P. aeruginosa 27853 were 0.5 µg/mL (≈ 1.04 µM) and 8 µg/mL (≈ 16.6 µM), respectively.

As to `COc1ccc2ncc(=O)n(C[C@H](N)[C@@H]3CC[C@@H](NCc4ccc5c(n4)NC(=O)CS5)CO3)c2c1` [Example 9, 6-({(3R,6S)-6-[(1S)-1-amino-2-(7-methoxy-2-oxo-2H-quinoxalin-1-yl)-ethyl]-tetrahydro-pyran-3-ylamino}-methyl)-4H-pyrido[3,2-b][1,4]thiazin-3-one], the minimum inhibitory concentration (MIC) in the experiment on E. coli 25922 was 0.25 µg/mL (≈ 0.503 µM); with P. aeruginosa 27853 it was 16 µg/mL (≈ 32.2 µM).

As to `COc1cnc2ccc(=O)n(C[C@H](N)[C@@H]3CC[C@@H](NCc4ccc5c(n4)NC(=O)CS5)CO3)c2c1` [Example 6, 6-({(3R,6S)-6-[(1S)-1-amino-2-(7-methoxy-2-oxo-2H-[1,5]naphthyridin-1-yl)-ethyl]-tetrahydro-pyran-3-ylamino}-methyl)-4H-pyrido[3,2-b][1,4]thiazin-3-one], the minimum inhibitory concentration (MIC) against E. coli 25922 was 0.25 µg/mL (≈ 0.503 µM); against P. aeruginosa 27853, 2 µg/mL (≈ 4.03 µM).

Regarding `COc1ccc2ccc(=O)n(CC(N)[C@H]3CC[C@H](NCc4ccc5c(n4)NC(=O)CO5)CC3)c2c1` (mixture of isomers) [Ref. Ex. 2, rac-6-(trans-{4-[1-amino-2-(7-methoxy-2-oxo-2H-quinolin-1-yl)-ethyl]-cyclohexylamino}-methyl)-4H-pyrido[3,2-b][1,4]oxazin-3-one], the minimum inhibitory concentration (MIC) against E. coli 25922 and in the experiment on P. aeruginosa 27853 was 0.5 µg/mL (≈ 1.05 µM) throughout.

In the case of `COc1ccc2ccc(=O)n(C[C@H](N)[C@@H]3CC[C@@H](NCc4ccc5c(n4)NC(=O)CS5)CO3)c2n1` [Example 10, 6-({(3R,6S)-6-[(1S)-1-amino-2-(7-methoxy-2-oxo-2H-[1,8]naphthyridin-1-yl)-ethyl]-tetrahydro-pyran-3-ylamino}-methyl)-4H-pyrido[3,2-b][1,4]thiazin-3-one], the MIC was ≤ 0.031 µg/mL in the experiment with E. coli 25922 and 0.5 µg/mL (≈ 1.01 µM) with P. aeruginosa 27853.

For the molecule `COc1ccc2ccc(=O)n(C[C@H](N)[C@H]3CC[C@H](NCc4ccc5c(n4)NC(=O)CS5)CC3)c2c1` [Example 1, 6-(trans-{4-[(1R)-1-amino-2-(7-methoxy-2-oxo-2H-quinolin-1-yl)-ethyl]-cyclohexylamino}-methyl)-4H-pyrido[3,2-b][1,4]thiazin-3-one], the minimum inhibitory concentration (MIC) is 0.063 µg/mL (≈ 0.128 µM) in the experiment with E. coli 25922 and 0.25 µg/mL (≈ 0.506 µM) in the experiment with P. aeruginosa 27853.

For `COc1ccc2ccc(=O)n(C[C@H](N)[C@@H]3CC[C@@H](NCc4cc5c(cn4)OCCO5)CO3)c2n1` [Example 12, 1-((1S)-2-amino-2-{(2S,5R)-5-[(2,3-dihydro-[1,4]dioxino[2,3-c]pyridin-7-ylmethyl)-amino]-tetrahydro-pyran-2-yl}-ethyl)-7-methoxy-1H-[1,8]naphthyridin-2-one], the “MIC for E. coli 25922” value in the experiment on E. coli 25922 turned out to be 0.063 µg/mL. In the experiment with P. aeruginosa 27853, the “MIC for P. aeruginosa 27853” value was found to be 0.5 µg/mL.

With `COc1ccc2ccc(=O)n(C[C@H](N)[C@@H]3CC[C@@H](NCc4ccc5c(n4)NC(=O)CS5)CO3)c2c1` [Example 5], the “MIC for E. coli 25922” value against E. coli 25922 came to 0.125 µg/mL. Also, the “MIC for P. aeruginosa 27853” value against P. aeruginosa 27853 was determined as 2 µg/mL.

Regarding `COc1ccc2ccc(=O)n(CC(N)[C@H]3CC[C@H](NCc4ccc5c(n4)NC(=O)CS5)CC3)c2c1` (mixture of isomers) [Ref. Ex. 1, rac-6-(trans-{4-[1-amino-2-(7-methoxy-2-oxo-2H-quinolin-1-yl)-ethyl]-cyclohexylamino}-methyl)-4H-pyrido[3,2-b][1,4]thiazin-3-one], the figures for the minimal inhibitory concentration (MIC) against E. coli 25922 and against P. aeruginosa 27853 were 0.25 µg/mL (≈ 0.506 µM) and 0.5 µg/mL (≈ 1.01 µM), respectively.

On to `COc1ccc2ccc(=O)n(C[C@H](N)[C@H]3CC[C@H](NCc4ccc5c(n4)NC(=O)CO5)CC3)c2c1` [Example 2, 6-(trans-{4-[(1R)-1-amino-2-(7-methoxy-2-oxo-2H-quinolin-1-yl)-ethyl]-cyclohexylamino}-methyl)-4H-pyrido[3,2-b][1,4]oxazin-3-one], for which the MIC against E. coli 25922 and with P. aeruginosa 27853 was 0.25 µg/mL (≈ 0.523 µM) each time.

As to `COc1ccc2ccc(=O)n(C[C@H](N)[C@@H]3CC[C@@H](NC/C=C/c4cc(F)ccc4F)CO3)c2c1` [Example 4, 1-((2S)-2-amino-2-{(2S,5R)-5-[(E)-3-(2,5-difluoro-phenyl)-allylamino]-tetrahydro-pyran-2-yl}-ethyl)-7-methoxy-1H-quinolin-2-one], the results for the minimal inhibitory concentration (MIC) with E. coli 25922 and with P. aeruginosa 27853 were 0.063 µg/mL (≈ 0.134 µM) and 2 µg/mL (≈ 4.26 µM), respectively.

On to `COc1cnc2ccc(=O)n(C[C@H](N)[C@@H]3CC[C@@H](NCc4ccc5c(n4)NC(=O)CO5)CO3)c2c1` [Example 7, 6-({(3R,6S)-6-[(1S)-1-amino-2-(7-methoxy-2-oxo-2H-[1,5]naphthyridin-1-yl)-ethyl]-tetrahydro-pyran-3-ylamino}-methyl)-4H-pyrido[3,2-b][1,4]oxazin-3-one], for which the MIC came to 1 µg/mL (≈ 2.08 µM) in the experiment with E. coli 25922 and 4 µg/mL (≈ 8.32 µM) with P. aeruginosa 27853.

Take `COc1cnc2ccc(=O)n(C[C@H](N)[C@@H]3CC[C@@H](NCc4ccc5c(c4)NC(=O)CO5)CO3)c2c1` [Example 8, 6-({(3R,6S)-6-[(1S)-1-amino-2-(7-methoxy-2-oxo-2H-[1,5]naphthyridin-1-yl)-ethyl]-tetrahydro-pyran-3-ylamino}-methyl)-4H-benzo[1,4]oxazin-3-one]: the MIC in the experiment with E. coli 25922 was 1 µg/mL (≈ 2.09 µM); in the experiment with P. aeruginosa 27853 it was 4 µg/mL (≈ 8.34 µM).

As to `COc1ccc2ccc(=O)n(C[C@H](N)[C@@H]3CC[C@@H](NCc4ccc5c(n4)NC(=O)CO5)CO3)c2c1` [Example 3, 6-({(3R,6S)-6-[(1S)-1-amino-2-(7-methoxy-2-oxo-2H-quinolin-1-yl)-ethyl]-tetrahydro-pyran-3-ylamino}-methyl)-4H-pyrido[3,2-b][1,4]oxazin-3-one], the results for the MIC against E. coli 25922 and with P. aeruginosa 27853 were 0.25 µg/mL (≈ 0.521 µM) and 4 µg/mL (≈ 8.34 µM), respectively.

Turning to `COc1ccc2ccc(=O)n(CC(N)C3CCC(NC/C=C/c4cc(F)ccc4F)CC3)c2c1` [Example 13, 1-((1R)-2-amino-2-{4-[(E)-3-(2,5-difluoro-phenyl)-allylamino]-cyclohexyl}-ethyl)-7-methoxy-1H-quinolin-2-one], the “MIC for E. coli 25922” value in the experiment on E. coli 25922 turned out to be 0.25 µg/mL. Also, the “MIC for P. aeruginosa 27853” value with P. aeruginosa 27853 stood at 1 µg/mL.
